What all share (assay): two-electrode voltage clamp, Xenopus oocytes
On the technique in general: Two-electrode voltage clamp is typically applied to oocytes expressing channels or transporters.

Assay [1] deals with T1, DopC1 (O. vulgaris).
T1 construct: full-length cDNA cloned from 1-dph O. vulgaris paralarvae, KSM vector, Xenopus oocytes; homomeric cys-loop channel; LOC number follows O. sinensis annotation
It is filed as cell-based, Octopus vulgaris. As to conditions: agonist; ND96, -60 mV.

Another assay addresses T2, DopC1 from Daphnia magna (Daphnia magna, UniProt A0A0P5YVQ3).
T2 construct: cDNA cloned from adult D. magna RNA, KSM vector, Xenopus oocytes; homomeric; LOC116927457 assigned to DopC1 by printed order only (DopC2 = LOC116923538)
T2 sequence (A0A0P5YVQ3 24-503): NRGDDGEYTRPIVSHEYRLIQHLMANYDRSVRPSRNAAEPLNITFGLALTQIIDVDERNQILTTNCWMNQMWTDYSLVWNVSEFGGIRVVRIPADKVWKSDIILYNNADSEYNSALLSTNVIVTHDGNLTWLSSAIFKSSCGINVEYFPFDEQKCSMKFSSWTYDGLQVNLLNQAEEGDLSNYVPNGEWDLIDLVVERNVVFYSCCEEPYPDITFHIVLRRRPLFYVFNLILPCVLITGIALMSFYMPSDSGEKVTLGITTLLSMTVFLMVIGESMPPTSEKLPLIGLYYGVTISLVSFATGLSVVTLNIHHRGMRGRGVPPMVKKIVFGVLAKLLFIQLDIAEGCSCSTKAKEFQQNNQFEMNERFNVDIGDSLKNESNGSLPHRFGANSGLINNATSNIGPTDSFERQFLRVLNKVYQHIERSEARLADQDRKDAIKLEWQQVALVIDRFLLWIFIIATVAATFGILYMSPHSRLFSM
The assay is classed as cell-based. As to conditions: agonist; ND96, -60 mV.

Assay [2] has as its target T3, DopC1 from Apis mellifera (Apis mellifera, UniProt A0A7M7R6H2).
T3 construct: gene LOC408525; full-length synthetic cDNA (GeneArt), KSM vector, Xenopus oocytes; homomeric channel
T3 sequence (A0A7M7R6H2 91-549): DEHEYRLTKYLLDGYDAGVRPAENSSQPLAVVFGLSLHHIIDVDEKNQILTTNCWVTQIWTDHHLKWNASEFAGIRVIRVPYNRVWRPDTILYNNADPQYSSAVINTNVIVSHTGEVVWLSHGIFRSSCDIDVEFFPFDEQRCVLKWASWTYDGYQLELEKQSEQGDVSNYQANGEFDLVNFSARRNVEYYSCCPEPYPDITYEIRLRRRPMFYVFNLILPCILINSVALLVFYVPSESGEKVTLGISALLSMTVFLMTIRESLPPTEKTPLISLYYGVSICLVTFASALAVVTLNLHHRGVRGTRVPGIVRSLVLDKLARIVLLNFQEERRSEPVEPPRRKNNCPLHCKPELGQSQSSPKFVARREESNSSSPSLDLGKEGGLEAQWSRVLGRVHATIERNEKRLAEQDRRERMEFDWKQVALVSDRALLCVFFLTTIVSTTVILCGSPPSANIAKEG
The assay is classed as cell-based.

In assay [3] the target is T4, DopC1 from Aplysia californica (Aplysia californica, UniProt A0ABM0GHJ1).
T4 construct: gene LOC101853763; full-length synthetic cDNA (GeneArt), KSM vector, Xenopus oocytes; homomeric channel
T4 sequence (A0ABM0GHJ1 25-518): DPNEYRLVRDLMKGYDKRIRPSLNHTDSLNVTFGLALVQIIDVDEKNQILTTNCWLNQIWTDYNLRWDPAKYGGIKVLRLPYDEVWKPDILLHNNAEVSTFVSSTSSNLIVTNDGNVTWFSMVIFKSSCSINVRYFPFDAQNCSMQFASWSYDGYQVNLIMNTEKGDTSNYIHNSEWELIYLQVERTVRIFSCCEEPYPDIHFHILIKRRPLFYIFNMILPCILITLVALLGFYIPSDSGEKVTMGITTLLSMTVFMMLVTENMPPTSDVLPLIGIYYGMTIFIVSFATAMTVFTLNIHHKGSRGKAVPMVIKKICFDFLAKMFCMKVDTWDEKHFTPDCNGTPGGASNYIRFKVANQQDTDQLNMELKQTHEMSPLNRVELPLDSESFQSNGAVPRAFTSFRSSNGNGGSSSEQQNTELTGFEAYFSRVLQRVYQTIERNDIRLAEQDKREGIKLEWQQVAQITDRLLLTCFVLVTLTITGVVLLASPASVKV
It is filed as cell-based.

The target of the next assay is T5, DopC2 from Daphnia magna (Daphnia magna, UniProt A0A0P6GTI1).
T5 construct: gene APZ42_017815; cDNA cloned from adult D. magna RNA, KSM vector, Xenopus oocytes; homomeric; LOC116923538 assigned to DopC2 by printed order only (DopC1 = LOC116927457)
T5 sequence (A0A0P6GTI1 36-620): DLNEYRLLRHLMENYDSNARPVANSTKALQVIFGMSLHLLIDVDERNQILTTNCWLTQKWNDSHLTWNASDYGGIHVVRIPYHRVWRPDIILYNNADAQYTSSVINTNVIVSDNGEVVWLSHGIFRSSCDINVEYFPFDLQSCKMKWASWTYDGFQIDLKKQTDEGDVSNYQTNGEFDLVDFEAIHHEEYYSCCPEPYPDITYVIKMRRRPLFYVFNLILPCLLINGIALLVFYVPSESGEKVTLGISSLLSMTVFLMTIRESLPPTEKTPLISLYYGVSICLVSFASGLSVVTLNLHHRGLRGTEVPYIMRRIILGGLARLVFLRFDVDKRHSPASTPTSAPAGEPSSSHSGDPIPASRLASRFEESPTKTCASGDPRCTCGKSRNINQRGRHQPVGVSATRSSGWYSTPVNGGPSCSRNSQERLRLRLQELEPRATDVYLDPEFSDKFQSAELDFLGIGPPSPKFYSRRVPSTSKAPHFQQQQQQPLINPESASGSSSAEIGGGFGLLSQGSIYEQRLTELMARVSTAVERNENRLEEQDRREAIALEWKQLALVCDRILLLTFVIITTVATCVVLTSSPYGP
It is filed as cell-based. As to conditions: agonist; ND96, -60 mV.

A further assay has as its system T6, AChRB1 (O. vulgaris).
T6 construct: full-length cDNA cloned from 1-dph O. vulgaris paralarvae, KSM vector, Xenopus oocytes; expressed alone (homomeric); LOC number follows O. sinensis annotation
The assay is classed as cell-based, Octopus vulgaris. The note with it: agonist; ND96, -60 mV.

In assay [4] the test system is T1, DopC1 (O. vulgaris). It is filed as cell-based, Octopus vulgaris. The note with it: antagonist; against 10 µM dopamine (~EC50); ND96, -60 mV.

As usually defined, the EC50 is the concentration at which the effect is half-maximal. Compound `CNCC(O)c1ccc(O)c(O)c1` (racemic) [epinephrine] had a concentration for a half-maximal effect (EC50) with DopC1 (O. vulgaris) [1] of 35 µM.

Consider `NCC(O)c1ccc(O)c(O)c1` (racemic) [norepinephrine], for which the EC50 on DopC1 from Daphnia magna worked out at 82 µM; in the assay with DopC1 (O. vulgaris) [1] it was 55 µM; in assay [2], 6.3 µM; in assay [3], 8.4 µM; on DopC2 from Daphnia magna, 36 µM. For `NCC(O)c1ccc(O)cc1` (racemic) [octopamine], the 50% effective concentration (EC50) in the assay on DopC1 (O. vulgaris) [1] was found to be 18000 µM. In the case of `CC(=O)OCC[N+](C)(C)C` [acetylcholine], it took 1.9 µM to reach a half-maximal effect in the assay on AChRB1 (O. vulgaris) (EC50). By IC50 is commonly meant the concentration that gives 50% inhibition. A higher IC50 goes with weaker potency in that assay. Compound `CN1CCc2cccc3c2[C@H]1Cc1ccc(O)c(O)c1-3` [apomorphine] yielded an IC50 in the assay on DopC1 (O. vulgaris) [4] of 7 µM. For `C[N+](C)(C)CCO` [choline], the EC50 in the assay on AChRB1 (O. vulgaris) is 98 µM. For `NCCc1ccc(O)c(O)c1` [dopamine], the EC50 at DopC1 from Daphnia magna came to 50 µM; in the assay with DopC1 (O. vulgaris) [1], 7.6 µM; in assay [2] it was 1.7 µM; in assay [3], 3.5 µM; at DopC2 from Daphnia magna it was 4.6 µM.

Compound `NCCc1c[nH]c2ccc(O)cc12` [serotonin] gave an EC50 in the assay with DopC1 (O. vulgaris) [1] of 73 µM. `NCCc1ccc(O)cc1` [tyramine] came in with an EC50 in the assay with DopC1 (O. vulgaris) [1] of 180 µM.
